Source: patent US7150974B1, “Parathyroid hormone receptor binding method” (The General Hospital Corporation, priority 1991, dated 2006)

Biological target: T1, carboxy-terminally-truncated rat receptor, R480 (Rattus norvegicus, UniProt P25961)
T1 construct: R480, by standard PCR technology using R15B as a template and an upstream primer containing a stop codon inserted at position 481; expressed in transfected cells
T1 sequence (P25961 27-480): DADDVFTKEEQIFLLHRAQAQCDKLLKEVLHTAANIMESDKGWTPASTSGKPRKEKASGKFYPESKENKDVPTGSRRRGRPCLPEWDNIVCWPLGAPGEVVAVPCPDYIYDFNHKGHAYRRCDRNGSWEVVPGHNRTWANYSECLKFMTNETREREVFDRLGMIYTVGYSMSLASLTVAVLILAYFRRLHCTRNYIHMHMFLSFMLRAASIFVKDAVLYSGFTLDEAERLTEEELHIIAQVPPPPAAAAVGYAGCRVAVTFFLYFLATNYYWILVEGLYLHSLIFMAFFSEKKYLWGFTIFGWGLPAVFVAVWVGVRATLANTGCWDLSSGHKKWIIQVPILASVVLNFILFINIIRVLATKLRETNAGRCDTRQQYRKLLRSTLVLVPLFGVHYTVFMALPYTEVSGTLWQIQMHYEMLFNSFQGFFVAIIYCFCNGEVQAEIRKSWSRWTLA
Assay: Binding to carboxy-terminally-truncated rat receptor R480 in COS-7 and CHO cells
Details: COS-7 (transient) and CHO (stable) cells
Method: [Nle^8,Nle^18,Tyr^34]bPTH-(1-34)amide (NlePTH), and [Tyr^36]PTHrP(1-36)amide(PTHrP) were iodinated with Na^125I (carrier free, New England Nuclear, Boston, Mass.) as previously reported (Segre et al., J. Biol. Chem. 254: 6980, 1979), and purified by reverse-phase HPLC. In brief, the labeled peptide was dissolved in 0.1% trifluoracetic acid (TFA), applied to a C18 Sep-pak cartridge (Waters Associates, Inc., Milford, Mass.) and eluted with a solution of 60% acetonitrile in 0.1% TFA. After lyophilization, the radioligand then was applied to C18-μBondapak column (3.9 mm×30 cm. Waters Associates) and eluted over 30 min with a linear gradient of 30-50% acetonitrile-0.1% TFA at a flow rate of 2 ml/min. The radioligand eluted in two peaks; the first peak, which eluted at approximately 38% acetonitrile, was used in these studies because it gave higher total and specific bindings. […]
Incubations were terminated by aspirating the buffer, and repeatedly (×3) washing the culture dishes, containing the adherent cells with chilled 0.9% NaCl solution, over a 15 sec period. Cell-bound radioactivity was recovered by the sequential addition (×3) of 1 N NaOH (200 μl) to each well. […] A second and third extraction with 1 N NaOH (200 μl) were combined with the first, and the total radioactivity was counted in a γ-spectrometer (Packard Instruments, Downers Grove, Ill.). […]

## [Nle^8,18, Tyr^34]bPTH(1-34)amide
  affinity for truncated receptor R480 compared with wild type receptor RB: equivalent affinities
